Measured values as given in patent US5352608A (priority 1992, dated 1994).
“Also recorded” adds a separate entry of the source. Read-outs that look alike come from different tables or passages of the source.

Legend:
[1] = system: Rhodobacter sphaeroides 2.4.1; format: cell-based
R. sphaeroides 2.4.1 = format: cell-based, Rhodobacter sphaeroides
[2] = system: Rhodopseudomonas palustris 1e5; assay: Intrinsic HLR to TeO3^2- (MIC); format: cell-based
E. coli = settings: exogenously supplied L-methionine; Scala and Williams; cited from earlier work
[3] = Table 4, photoheterotrophic, 2 mM PO4^3-, 10 W/m^2
[4] = Table 4, photoheterotrophic, SMM succinate, 10 W/m^2

Row | Molecule | MIC Low-PO4^3- Medium [1] | MIC Standard Medium [1] | Gas evolution in words (R. sphaeroides 2.4.1) | Reduction to elemental state (R. sphaeroides 2.4.1) | Resistance in words [1] | other results
1 | [O]=[Cr](=[O])=[O] [CrO3] | < 10 µg/mL | 20 µg/mL |  |  |  | MIC [1]: < 20 µg/mL
2 | [O-][I+3]([O-])([O-])O [IO4^-] |  |  | no gas evolution was observed | Neither IO4^-, SiO3^2-, nor SiO^42- was reduced to its elemental state | resistance was shown | Decrease in resistance when extracellular phosphate reduced ten-fold [1]: three- to four-fold; Intrinsic resistance relative to γ-3 Proteobacteria [1]: twenty-fold
3 | O=[Te](=O)([O-])[O-].[K+].[K+] [K2 TeO4] | 500 µg/mL | 500 µg/mL | Copious gas evolution |  | High level resistance | Appearance of cells / metal deposit (R. sphaeroides 2.4.1): intracellular accumulation of a dense metal deposit; Intrinsic resistance relative to E. coli [2]: 40 times; Relative toxicity [1]: SeO4^2- >TeO4^2- >TeO3^2- >SeO3^2- >Rh2 O3.5H2 O
4 | [K+].[O]=[Mn](=[O])(=[O])[O-] [KMnO4] | < 10 µg/mL | 20 µg/mL |  |  |  | MIC [1]: < 20 µg/mL
5 | N[C@@H](CS)C(=O)O [L-cysteine, reference compound] |  |  |  |  |  | Effect of medium supplement on HLR [1]: solely responsible for the increased sensitivity to TeO3^2-
6 | CSCC[C@H](N)C(=O)O [L-methionine, reference compound] |  |  |  |  |  | TeO3^2- resistance enhancement by L-methionine (E. coli): two-fold; Effect of medium supplement on HLR [1]: no affect on HLR to TeO3^2-
7 | [O]=[Mo](=[O])=[O] [MoO3] | sat'd sol'n | sat'd sol'n |  |  | shows resistance | Effect on cell growth as saturated solution [1]: did not affect cell growth
8 | [NH4+].[O]=[V](=[O])[O-] [NH4 VO3] | sat'd sol'n | sat'd sol'n |  |  | shows resistance | Effect on cell growth as saturated solution [1]: did not affect cell growth
9 | [Na+].[Na+].[O]=[Cr](=[O])([O-])[O-] [Na2 CrO4] | 20 µg/mL | 10 µg/mL |  |  |  | MIC [1]: < 20 µg/mL
10 | [Na+].[Na+].[O]=[Mo](=[O])([O-])[O-] [Na2 MoO4] |  |  | no gas was evolved | not reduced to their elemental states | resistance was shown | Effect of extracellular phosphate on resistance [1]: unaffected by extracellular phosphate levels; MIC Low-PO4^3- Medium [1, 3]: 1500 µg/mL; MIC Standard Medium [1, 4]: 1400 µg/mL
11 | O=S([O-])[O-].[Na+].[Na+] [Na2 SO3] | 500 µg/mL | 600 µg/mL | no gas was evolved | not reduced to their elemental states | resistance was shown | Effect of extracellular phosphate on resistance [1]: unaffected by extracellular phosphate levels
12 | O=[Se]([O-])[O-].[Na+].[Na+] [Na2 SeO3] | 500 µg/mL | 800 µg/mL |  |  | High level resistance | Appearance of cells / metal deposit (R. sphaeroides 2.4.1): bright red in color; Relative toxicity [1]: SeO4^2- >TeO4^2- >TeO3^2- >SeO3^2- >Rh2 O3.5H2 O
13 | O=[Se](=O)([O-])[O-].[Na+].[Na+] [Na2 SeO4] | 100 µg/mL | 150 µg/mL |  |  | High level resistance | Appearance of cells / metal deposit (R. sphaeroides 2.4.1): bright red in color; Relative toxicity [1]: SeO4^2- >TeO4^2- >TeO3^2- >SeO3^2- >Rh2 O3.5H2 O
14 | O=[Si]([O-])[O-].[Na+].[Na+] [Na2 SiO3] | 100 µg/mL | 400 µg/mL | no gas evolution was observed | Neither IO4^-, SiO3^2-, nor SiO^42- was reduced to its elemental state | resistance was shown | Decrease in resistance when extracellular phosphate reduced ten-fold [1]: three- to four-fold; Intrinsic resistance relative to γ-3 Proteobacteria [1]: twenty-fold
15 | [Na+].[Na+].[O]=[W](=[O])([O-])[O-] [Na2 WO4] |  |  | no gas was evolved | not reduced to their elemental states | resistance was shown | Effect of extracellular phosphate on resistance [1]: unaffected by extracellular phosphate levels; MIC Low-PO4^3- Medium [1, 3]: 1600 µg/mL; MIC Standard Medium [1, 4]: 1600 µg/mL
16 | O.O.O.O.O.[O]=[Rh][O][Rh]=[O] [Rh2 O3.5H2 O, rhodium sesquioxide] | sat'd sol'n | sat'd sol'n |  |  | High level resistance; also recorded: shows resistance | Appearance of cells / metal deposit (R. sphaeroides 2.4.1): grayish bronze; Effect on cell growth as saturated solution [1]: did not affect cell growth; Relative toxicity [1]: SeO4^2- >TeO4^2- >TeO3^2- >SeO3^2- >Rh2 O3.5H2 O
17 | [O-2].[O-2].[O-2].[Sb+3].[Sb+3] [Sb2 O3] | sat,d sol'n | sat'd sol'n |  |  | shows resistance | Effect on cell growth as saturated solution [1]: did not affect cell growth
18 | [O]=[Sn]=[O] [SnO2] | sat'd sol'n | sat'd sol'n |  |  | shows resistance | Effect on cell growth as saturated solution [1]: did not affect cell growth
19 | N[C@@H](CSSC[C@H](N)C(=O)O)C(=O)O [cystine, reference compound] |  |  |  |  |  | Effect of medium supplement on HLR [1]: Neither cystine, glutathione nor thioglycollate, however, decreased HLR
20 | N[C@@H](CCC(=O)N[C@@H](CS)C(=O)NCC(=O)O)C(=O)O [glutathione, reference compound] |  |  |  |  |  | Effect of medium supplement on HLR [1]: Neither cystine, glutathione nor thioglycollate, however, decreased HLR
21 | O=C(O)CS [thioglycollate, reference compound] |  |  |  |  |  | Effect of medium supplement on HLR [1]: Neither cystine, glutathione nor thioglycollate, however, decreased HLR
22 | Na2 HAsO4 |  |  | no gas was evolved | not reduced to their elemental states | resistance was shown | Effect of extracellular phosphate on resistance [1]: unaffected by extracellular phosphate levels; MIC Low-PO4^3- Medium [1, 3]: 1600 µg/mL; MIC Standard Medium [1, 4]: 1500 µg/mL
23 | Na2 SiO4 | 100 µg/mL | 300 µg/mL | no gas evolution was observed | Neither IO4^-, SiO3^2-, nor SiO^42- was reduced to its elemental state | resistance was shown | Decrease in resistance when extracellular phosphate reduced ten-fold [1]: three- to four-fold; Intrinsic resistance relative to γ-3 Proteobacteria [1]: twenty-fold
24 | Na2 SnO4 | 800 µg/mL | 800 µg/mL | no gas was evolved | not reduced to their elemental states | resistance was shown | Effect of extracellular phosphate on resistance [1]: unaffected by extracellular phosphate levels
25 | NaSiO4 | 150 µg/mL | 400 µg/mL |  |  |  | 
